# How the values were obtained:
# human glucagon receptor [1] = target: T1, human glucagon receptor (Homo sapiens (Human), UniProt P47871); experiment: Human Glucagon SPA Assay (binding of [125I]Glucagon-Cex); conditions: membrane from chem-1 cells stably transfected with the human glucagon receptor, Ki by Cheng-Prusoff equation
# human glucagon receptor [2] = target: T1, human glucagon receptor; experiment: Glucagon cAMP Assay (Cisbio cAMP detection); assay type: cell-based; conditions: CHOK1 cells stably transfected with the human glucagon receptor; block of glucagon induced cAMP production; Kb by modified Cheng-Prusoff equation
# T1 sequence (P47871 26-477): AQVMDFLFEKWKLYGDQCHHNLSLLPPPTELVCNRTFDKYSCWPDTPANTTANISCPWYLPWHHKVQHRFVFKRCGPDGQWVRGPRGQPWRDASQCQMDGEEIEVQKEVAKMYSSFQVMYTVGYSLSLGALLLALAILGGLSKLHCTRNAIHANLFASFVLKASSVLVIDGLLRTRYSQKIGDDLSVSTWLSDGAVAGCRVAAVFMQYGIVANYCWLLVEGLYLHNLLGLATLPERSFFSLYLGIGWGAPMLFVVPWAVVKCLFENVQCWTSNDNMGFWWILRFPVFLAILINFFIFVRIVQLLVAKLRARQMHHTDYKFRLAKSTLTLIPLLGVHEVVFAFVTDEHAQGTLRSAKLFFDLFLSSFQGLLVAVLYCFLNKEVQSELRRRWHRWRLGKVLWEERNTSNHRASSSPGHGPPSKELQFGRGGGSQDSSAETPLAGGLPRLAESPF
Compound,Ki (human glucagon receptor [1]),Kb (human glucagon receptor [2])
"CCCC(Oc1ccc(-n2cc3cccc(C)c3n2)cc1)c1ccc(C(=O)NCCC(=O)O)cc1 (centres unmarked) [Example 125, 3-(4-(1-(4-(7-methyl-2H-indazol-2-yl)phenoxy)butyl)benzamido)propanoic acid]",98.2 nM,144 nM
"CCCC(Oc1ccc(-n2cc3ccc(C)cc3n2)cc1)c1ccc(C(=O)NCCC(=O)O)cc1 (centres unmarked) [Example 126, 3-(4-(1-(4-(6-methyl-2H-indazol-2-yl)phenoxy)butyl)benzamido)propanoic acid]",161 nM,212 nM
"CCCC(Oc1ccc(-n2cc3c(C)cccc3n2)cc1)c1ccc(C(=O)NCCC(=O)O)cc1 (centres unmarked) [Example 127, 3-(4-(1-(4-(4-methyl-2H-indazol-2-yl)phenoxy)butyl)benzamido)propanoic acid]",316 nM,202 nM
"CCCC(Oc1ccc(-n2cc3cc(C)ccc3n2)cc1)c1ccc(C(=O)NCCC(=O)O)cc1 (centres unmarked) [Example 128, 3-(4-(1-(4-(5-methyl-2H-indazol-2-yl)phenoxy)butyl)benzamido)propanoic acid]",208 nM,268 nM
"CCCC(Oc1cc(C)c(-n2cc(Cl)cn2)c(C)c1)c1ccc(C(=O)NCCC(=O)O)cc1 (centres unmarked) [Example 130, (+\−)-3-(4-(1-(4-(4-chloro-1H-pyrazol-1-yl)-3,5-dimethylphenoxy)butyl)benzamido)propanoic acid]",116 nM,195 nM
"CCCC(Nc1ccc(-n2cc(-c3ccccc3)cn2)nc1)c1ccc(C(=O)NCCC(=O)O)cn1 (centres unmarked) [Example 132, (+\−)-3-(6-(1-(6-(4-phenyl-1H-pyrazol-1-yl)pyridin-3-ylamino)butyl)nicotinamido)propanoic acid]",132 nM,153 nM
"CCCC(Oc1ccc(-n2cc3cccc(Cl)c3n2)cc1)c1ccc(C(=O)NCCC(=O)O)cc1 (centres unmarked) [Example 139, (+\−)-3-(4-(1-(4-(7-chloro-2H-indazol-2-yl)phenoxy)butyl)benzamido)propanoic acid]",354 nM,147 nM
"CCCC(Oc1cc(C)c(-n2cnc(C(F)(F)F)c2)c(C)c1)c1ccc(C(=O)NCCC(=O)O)cc1 (centres unmarked) [Example 141, (+\−)-3-(4-(1-(3,5-dimethyl-4-(4-(trifluoromethyl)-1H-imidazol-1-yl)phenoxy)butyl)benzamido)propanoic acid]",89.5 nM,586 nM
"CCCC(Oc1cc(C)c(-n2cc(C(F)(F)F)nn2)c(C)c1)c1ccc(C(=O)NCCC(=O)O)cc1 (centres unmarked) [Example 148, (+\−)-3-(4-(1-(3,5-dimethyl-4-(4-(trifluoromethyl)-1H-1,2,3-triazol-1-yl)phenoxy)butyl)benzamido)propanoic acid]",125 nM,423 nM
"CCCC(Oc1ccc(-n2cc(C(F)(F)F)cn2)cc1C)c1ccc(C(=O)NCCC(=O)O)cc1 (centres unmarked) [Example 159, 3-(4-(1-(2-methyl-4-(4-(trifluoromethyl)-1H-pyrazol-1-yl)phenoxy)butyl)benzamido)propanoic acid]",315 nM,730 nM
"Cc1cc([C@H](CC(C)C)Nc2ccc(C(=O)NCCC(=O)O)cn2)cc(C)c1-n1cc(C(F)(F)F)cn1 [Example 169, (S)-3-(6-((1-(3,5-dimethyl-4-(4-(trifluoromethyl)-1H-pyrazol-1-yl)phenyl)-3-methylbutyl)amino)nicotinamido)propanoic acid]",193 nM,1150 nM

# More lines, now with the values ahead:
Ki (human glucagon receptor [1]),Kb (human glucagon receptor [2]),Compound
28 nM,150 nM,"Cc1cc(C(Nc2ccc(C(=O)NCCC(=O)O)cn2)C2CCCC2)cc(C)c1-n1cc(C(F)(F)F)cn1 (single isomer, unassigned; isomer 2) [Example 171, 3-(6-((cyclooentyl(3,5-dimethyl-4-(4-(trifluoromethyl)-1H-pyrazol-1-yl)phenyl)methyl)amino)nicotinamido)propanoic acid, Isomer 2]"
26.6 nM,641 nM,"O=C(O)CCNC(=O)c1ccc([C@H](CCC(F)(F)F)Nc2ccc(-n3cc(C(F)(F)F)cn3)nc2)cc1 (single isomer, unassigned; isomer 2) [Example 173, N-{4-[4,4,4-trifluoro-1-({6-[4-(trifluoromethyl)-1H-pyrazol-1-yl]pyridin-3-yl}amino)butyl]benzoyl}-beta-alanine, Isomer 2]"
28.7 nM,10.5 nM,"CC1(C)CC([C@H](Nc2ccc(-n3cc(C4CC4)cn3)nc2)c2ccc(C(=O)NCCC(=O)O)cc2)C1 (single isomer, unassigned; isomer 2) [Example 175, N-{-4-[{[6-(4-cyclopropyl-1H-pyrazol-1-yl)pyridin-3-yl]amino}(3,3-dimethylcyclobutyl)methyl]benzoyl}-beta-alanine, Isomer 2]"
10.3 nM,45 nM,"CC(C)(C)[C@H](Nc1ccc(-n2cc(C(F)(F)F)cn2)nc1)c1ccc(C(=O)NCCC(=O)O)cc1 (single isomer, unassigned; isomer 2) [Example 180, 3-(4-(2,2-dimethyl-1-((6-(4-(trifluoromethyl)-1H-pyrazol-1-yl)pyridin-3-yl)amino)propyl)benzamido)propanoic acid, Isomer 2]"
53.5 nM,154 nM,"CC(C)(C)[C@H](Nc1ccc(-n2cnc(C(F)(F)F)c2)nc1)c1ccc(C(=O)NCCC(=O)O)cc1 (single isomer, unassigned; isomer 2) [Example 183, 3-(4-(2,2-dimethyl-1-((6-(4-(trifluoromethyl)-1H-imidazol-1-yl)pyridin-3-yl)amino)propyl)benzamido)propanoic acid, Isomer 2]"
50.3 nM,88.5 nM,"Cc1nn(-c2ccc(N[C@H](c3ccc(C(=O)NCCC(=O)O)cc3)C3CCCC3)cn2)cc1Cl (single isomer, unassigned; isomer 2) [Example 192, 3-(4-((6-(4-chloro-3-methyl-1H-pyrazol-1-yl)pyridin-3-ylamino)(cyclopentyl)methyl)benzamido)propanoic acid, Isomer 2]"
88.4 nM,106 nM,"CC(C)c1cn(-c2ccc(NC(c3ccc(C(=O)NCCC(=O)O)cc3)C3CCCC3)cn2)cn1 (centres unmarked) [Example 123, 3-(4-(cyclopentyl(6-(4-isopropyl-1H-imidazol-1-yl)pyridin-3-ylamino)methyl)benzamido)propanoic acid]"
51 nM,247 nM,"Cc1cc(OC(c2ccc(C(=O)NCCC(=O)O)cc2)C2CCCC2)cc(C)c1-n1cnc(C(F)(F)F)c1 (centres unmarked) [Example 131, (+\−)-3-(4-(cyclopentyl(3,5-dimethyl-4-(4-(trifluoromethyl)-1H-imidazol-1-yl)phenoxy)methyl)benzamido)propanoic acid]"
62.8 nM,154 nM,"CCCC(Oc1ccc(-n2cc3cc(Cl)ccc3n2)cc1)c1ccc(C(=O)NCCC(=O)O)cc1 (centres unmarked) [Example 140, (+\−)-3-(4-(1-(4-(5-chloro-2H-indazol-2-yl)phenoxy)butyl)benzamido)propanoic acid]"
62.6 nM,174 nM,"CCCC(Oc1cc(C)c(-n2cc(C3CC3)cn2)c(C)c1)c1ccc(C(=O)NCCC(=O)O)cc1 (centres unmarked) [Example 144, (+\−)-3-(4-(1-(4-(4-cyclopropyl-1H-pyrazol-1-yl)-3,5-dimethylphenoxy)butyl)benzamido)propanoic acid]"
27.4 nM,185 nM,"Cc1cc([C@@H](CC(C)C)Nc2ccc(C(=O)NCCC(=O)O)cn2)cc(C)c1-n1cc(C(F)(F)F)cn1 [Example 168, (R)-3-(6-((1-(3,5-dimethyl-4-(4-(trifluoromethyl)-1H-pyrazol-1-yl)phenyl)-3-methylbutyl)amino)nicotinamido)propanoic acid]"
